Laboratory results published in publication PMC9977574 (Gut, 2022).

Biological target: FKBP8 (FK506 binding protein 8) (Homo sapiens, UniProt Q14318)
Experiment: microscale thermophoresis competition with recombinant proteins

FKBP8 (FK506 binding protein 8), sequence (Q14318 whole entry): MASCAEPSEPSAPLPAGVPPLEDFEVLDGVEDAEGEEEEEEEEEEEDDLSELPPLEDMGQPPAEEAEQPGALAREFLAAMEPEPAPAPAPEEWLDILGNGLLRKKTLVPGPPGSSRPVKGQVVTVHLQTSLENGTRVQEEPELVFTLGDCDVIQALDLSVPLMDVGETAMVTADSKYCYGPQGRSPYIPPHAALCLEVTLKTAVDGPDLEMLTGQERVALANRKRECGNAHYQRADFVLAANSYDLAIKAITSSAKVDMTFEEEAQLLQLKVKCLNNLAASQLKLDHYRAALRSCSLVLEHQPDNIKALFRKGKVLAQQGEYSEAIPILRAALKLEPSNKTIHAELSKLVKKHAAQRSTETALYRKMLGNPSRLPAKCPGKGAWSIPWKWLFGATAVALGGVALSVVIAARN
FKBP8 (FK506 binding protein 8), sequence (Q15746 whole entry partner): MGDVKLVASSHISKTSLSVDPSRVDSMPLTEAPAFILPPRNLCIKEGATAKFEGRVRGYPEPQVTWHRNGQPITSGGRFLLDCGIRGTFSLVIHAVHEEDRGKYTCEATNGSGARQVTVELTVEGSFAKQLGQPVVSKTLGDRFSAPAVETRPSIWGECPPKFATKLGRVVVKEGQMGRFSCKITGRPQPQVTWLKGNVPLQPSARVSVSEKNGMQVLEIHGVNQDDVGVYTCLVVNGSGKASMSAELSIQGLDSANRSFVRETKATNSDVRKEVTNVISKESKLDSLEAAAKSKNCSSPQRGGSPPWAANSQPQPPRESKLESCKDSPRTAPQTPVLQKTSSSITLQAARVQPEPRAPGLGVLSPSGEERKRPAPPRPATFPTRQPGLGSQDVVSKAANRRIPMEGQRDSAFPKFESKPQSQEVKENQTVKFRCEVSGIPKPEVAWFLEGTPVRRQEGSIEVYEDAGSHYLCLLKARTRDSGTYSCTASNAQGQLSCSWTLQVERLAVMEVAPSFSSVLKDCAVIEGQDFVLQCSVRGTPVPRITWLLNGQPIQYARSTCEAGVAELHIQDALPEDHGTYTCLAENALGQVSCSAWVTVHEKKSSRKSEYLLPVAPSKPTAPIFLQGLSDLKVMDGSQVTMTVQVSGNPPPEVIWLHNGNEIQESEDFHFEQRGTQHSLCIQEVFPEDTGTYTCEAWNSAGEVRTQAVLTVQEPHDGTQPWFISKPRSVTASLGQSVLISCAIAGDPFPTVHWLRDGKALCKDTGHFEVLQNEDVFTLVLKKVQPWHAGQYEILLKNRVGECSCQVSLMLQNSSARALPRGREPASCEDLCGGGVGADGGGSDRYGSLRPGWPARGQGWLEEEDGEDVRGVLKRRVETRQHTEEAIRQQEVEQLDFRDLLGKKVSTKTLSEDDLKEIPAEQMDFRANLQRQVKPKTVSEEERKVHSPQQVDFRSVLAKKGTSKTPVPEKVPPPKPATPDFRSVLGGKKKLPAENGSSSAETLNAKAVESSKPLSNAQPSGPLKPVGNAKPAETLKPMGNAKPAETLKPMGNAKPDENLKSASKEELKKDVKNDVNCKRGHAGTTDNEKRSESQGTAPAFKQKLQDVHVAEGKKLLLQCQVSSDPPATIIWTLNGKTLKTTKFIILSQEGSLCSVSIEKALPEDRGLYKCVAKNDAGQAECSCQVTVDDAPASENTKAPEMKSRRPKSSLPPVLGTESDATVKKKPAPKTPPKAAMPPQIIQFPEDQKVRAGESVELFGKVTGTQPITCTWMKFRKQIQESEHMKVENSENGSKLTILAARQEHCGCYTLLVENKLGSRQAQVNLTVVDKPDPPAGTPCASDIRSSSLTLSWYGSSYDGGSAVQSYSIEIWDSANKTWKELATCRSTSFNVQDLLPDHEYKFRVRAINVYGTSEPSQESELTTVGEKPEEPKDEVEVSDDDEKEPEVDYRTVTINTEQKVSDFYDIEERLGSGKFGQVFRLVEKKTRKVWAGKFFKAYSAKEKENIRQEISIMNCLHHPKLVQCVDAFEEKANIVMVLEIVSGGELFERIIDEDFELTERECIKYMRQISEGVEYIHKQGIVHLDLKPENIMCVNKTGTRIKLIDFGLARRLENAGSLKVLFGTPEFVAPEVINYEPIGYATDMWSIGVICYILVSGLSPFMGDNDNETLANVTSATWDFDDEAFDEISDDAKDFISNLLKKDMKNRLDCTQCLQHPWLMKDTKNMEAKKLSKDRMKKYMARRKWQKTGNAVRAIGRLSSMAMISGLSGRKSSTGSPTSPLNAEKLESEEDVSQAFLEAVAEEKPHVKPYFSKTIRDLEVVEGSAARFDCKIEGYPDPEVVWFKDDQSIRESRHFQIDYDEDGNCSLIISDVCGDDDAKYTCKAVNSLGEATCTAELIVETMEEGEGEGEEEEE

IC50: 68.7 ± 13.3 µM
Structure (SMILES): C=CC[C@@H]1/C=C(\C)C[C@H](C)C[C@H](OC)[C@H]2O[C@@](O)(C(=O)C(=O)N3CCCC[C@H]3C(=O)O[C@H](/C(C)=C/[C@@H]3CC[C@@H](O)[C@H](OC)C3)[C@H](C)[C@@H](O)CC1=O)[C@H](C)C[C@@H]2OC [tacrolimus]
